Measurements taken from PMC12339163, “Combining Plant Bioactives With Antibiotics for Enhanced Antibiofilm Activity Against Uropathogenic Staphylococcus spp. and Cytotoxicity Evaluation” (Advances in Pharmacological and Pharmaceutical Sciences, 2025).
≈ marks a conversion by molar mass, not a printed value. Where “and” joins values, the source holds several entries; their conditions need not be identical. Identical values can stand only once. Like-named read-outs stand apart in the source and are kept apart here. One block for each compound: values may come before it.

Assays:
[1] = test system: Staphylococcus epidermidis biofilm; assay: Checkerboard combination assay, biofilm eradication; type: cell-based; conditions: for MBEC Alone ATB: antibiotic alone
Protocol: The effect of the combination of ATBs with NPs on the preformed biofilm was evaluated by determining the FICI, as described above for biofilm formation, with slight modifications. After biofilm formation for 24 h, the plate was gently emptied and washed three times with PBS. Then, 50 µL of ATBs and 50 µL of NPs were introduced to the plate. The final concentration ranges from 0.0625 to 128 µg/mL and from 4 to 512 µg/mL for ATBs and NPs, respectively, and is incubated at 37°C for 24 h. After incubation, the medium was gently removed, and the plate was washed three times with PBS. At the end of the incubation time, the MTT reduction assay was performed, and the MBEC was determined. To assess the effect of the combination, the FICI was calculated and interpreted as described above.

S. aureus biofilm [2] = assay: Biofilm eradication assay (MBEC, MTT); type: cell-based, Staphylococcus aureus; conditions: Staphylococcus aureus, 24 h; geometric mean, S. aureus (n = 3)
Protocol: (§1) The determination of the biofilm eradication potential of NPs and ATBs was performed as previously described. Briefly, 100 µL of bacterial inoculum (1.5 × 10^6 CFU/mL) and 100 µL of MHB + 1% glucose were introduced into the microplate, incubated at 37°C for 24 h, and the microplate was gently emptied and washed three times with PBS. Then, 200 µL of ATBs or NPs at respective concentrations ranging from 8 to 1024 µg/mL and from 16 to 2048 µg/mL were incubated at 37°C for 24 h. Once incubation was completed, the microplate was processed as described above, and the percentage of biofilm eradication was calculated using the formula below. The minimal biofilm eradicating concentration (MBEC) was recorded as the lowest concentration of the test sample that reduces 100% of biofilm:(2) % biofilm eradication=ODcontrol−ODblank−ODtest−ODblank/ODcontrol−ODblank×100.

S. epidermidis = assay: MIC and MBC, broth microdilution; type: cell-based, Staphylococcus epidermidis; conditions: Staphylococcus epidermidis, geometric mean, S. epidermidis (n = 3); for MBC: read-out: MBC; for MIC: read-out: MIC
Protocol: Seven clinical isolates of Staphylococcus spp. including 2 S. aureus, 3 S. saprophyticus, and 2 S. epidermidis were used. They were isolated from urine samples in our previous study. Two reference strains (S. aureus ATCC1026 and S. epidermidis ATCC35984) obtained from the American Type Culture Collection were also included. They were kept in the mixture of glycerol and Mueller Hinton Broth (MHB) (1:1) at −20°C, and the activation was achieved using the streak technique on Mueller Hinton agar (MHA) medium.
The MICs of ATBs and NPs were determined by the broth microdilution method as previously described. NPs and ATBs were, respectively, prepared at 4096 µg/mL and 512 µg/mL and serially diluted twofold with MHB in a 96-well microplate at a volume of 100 µL. Then, the wells were filled with 100 µL of inoculum (1.5 × 10^6 CFU/mL) to give final concentrations ranging from 1024 µg/mL to 0.5 µg/mL and 128 µg/mL to 0.062 µg/mL of NPs and ATBs, respectively. The microplates were incubated for 24 h at 37°C. Wells containing only bacterial inoculum were used as the negative control. After incubation, a volume of 40 µL of INT solution (0.2 mg/mL) was added to each well, and the microplate was incubated at 37°C for 30 min. Viable bacteria cells change the yellow dye of INT to a pink color. The MIC was considered as the lowest concentration of the sample at which there was no change in the coloration of the medium, corresponding to the complete inhibition of microbial growth.
All tests were performed in triplicate.

[3] = test system: Staphylococcus epidermidis biofilm; assay: Checkerboard combination assay, biofilm inhibition; type: cell-based
Protocol: (§2) The effect of the combination of ATBs with NPs on biofilm formation was evaluated by determining the FICI, as described above for planktonic cells, except that the MHB was supplemented with 1% glucose.
(§3) The lowest MBICs of ATBs or NPs that inhibited metabolic activity in the biofilm were determined as described above. The FICI was used to perform the effect of combination and calculated as follows: FICI: (MBIC of ATBs in combinations/MBIC of ATBs alone) + (MBIC of NP in the combinations/MBIC of NP alone). FICI was interpreted as indicated above.

[4] = test system: Staphylococcus aureus biofilm; assay: Checkerboard combination assay, biofilm inhibition; type: cell-based; conditions: for MBIC alone, ATB: antibiotic alone
Protocol: as §2, §3

[5] = test system: Staphylococcus saprophyticus biofilm; assay: Checkerboard combination assay, biofilm inhibition; type: cell-based
Protocol: as §2, §3

S. aureus biofilm [6] = assay: Biofilm inhibition assay (MBIC, MTT); type: cell-based, Staphylococcus aureus; conditions: Staphylococcus aureus, 24 h; geometric mean, S. aureus (n = 3)
Protocol: (§4) The biofilm formation inhibitory activity of NPs and ATBs was carried out according to the method previously described. A total of 100 µL of bacterial inoculum (1.5 × 10^6 CFU/mL) was used, and 100 µL of each sample was added to the microplate to achieve final concentrations ranging from 0.25 µg/mL to 128 µg/mL for ATBs and from 8 µg/mL to 1024 µg/mL for NPs. Then, the microplate was incubated at 37°C for 24 h. After incubation, the plates were gently emptied and washed three times with a phosphate buffer solution at pH 7.2. Then, the MTT solution (0.5 mg/mL) prepared in PBS was introduced into each well, and the microplate was further incubated at 37°C for 24 h. Untreated wells containing bacterial suspension and MHB supplemented with 1% glucose were considered positive controls, and wells containing only MHB+1% glucose without bacteria were used as blanks. After incubation, the MTT solution was aspirated, then 150 µL of DMSO was introduced to dissolve the formazan crystal formed by viable bacteria, and the optical density (OD) was measured at 570 nm using a microplate reader (VERSA-max). The percentage of biofilm inhibition was calculated using the formula below, and the minimal biofilm inhibitory concentration (MBIC) was recorded as the lowest concentration of NPs or ATBs that inhibited 100% of biofilm:(1) % biofilm inhibition=ODcontrol−ODblank−ODtest−ODblank/ODcontrol−ODblank×100.

S. saprophyticus biofilm = assay: Biofilm inhibition assay (MBIC, MTT); type: cell-based, Staphylococcus saprophyticus; conditions: Staphylococcus saprophyticus, 24 h; geometric mean, S. saprophyticus (n = 3)
Protocol: as §4

S. epidermidis biofilm [7] = assay: Biofilm eradication assay (MBEC, MTT); type: cell-based, Staphylococcus epidermidis; conditions: Staphylococcus epidermidis, 24 h; geometric mean, S. epidermidis (n = 3)
Protocol: as §1

S. epidermidis biofilm [8] = assay: Biofilm inhibition assay (MBIC, MTT); type: cell-based, Staphylococcus epidermidis; conditions: Staphylococcus epidermidis, 24 h; geometric mean, S. epidermidis (n = 3)
Protocol: as §4

[9] = S. epidermidis biofilm eradication, mean MBEC
[10] = S. epidermidis, biofilm inhibition, mean
[11] = antibiotic alone, S. epidermidis biofilm inhibition
[12] = S. saprophyticus, biofilm inhibition, mean
[13] = antibiotic alone, S. saprophyticus biofilm inhibition
[14] = natural product alone, S. epidermidis biofilm inhibition
[15] = S. aureus, biofilm inhibition, mean
[16] = natural product alone, S. aureus biofilm inhibition
[17] = natural product alone, S. saprophyticus biofilm inhibition

- MIC (S. epidermidis): 26.8 µg/mL (≈ 73.4 µM)
SMILES: CC1(C)S[C@@H]2[C@H](NC(=O)[C@H](N)c3ccc(O)cc3)C(=O)N2[C@H]1C(=O)O [Amoxicillin, amoxicillin]
- MBEC Alone ATB [1, 9]: 16 µg/mL
- minimal effective concentration (S. aureus biofilm [2]): 37.3 µg/mL
- MBC (S. epidermidis; antibiotics): > 128 µg/mL
- MBIC alone, ATB [3, 10]: 2.08 µg/mL
- MBIC alone, ATB [3, 11]: 2.08 µg/mL
- MBIC alone, ATB ([4]; S. aureus biofilm inhibition): 1.5 µg/mL
- MBIC alone, ATB [5, 12]: 8.33 µg/mL
- MBIC alone, ATB [5, 13]: 8.33 µg/mL
- minimal effective concentration (S. aureus biofilm [6]): 1.5 µg/mL
- minimal effective concentration (S. saprophyticus biofilm): 9 µg/mL
- minimal effective concentration (S. epidermidis biofilm [7]): 16 µg/mL
- minimal effective concentration (S. epidermidis biofilm [8]): 2.08 µg/mL

- MIC (S. epidermidis): 341 µg/mL (≈ 2270 µM)
SMILES: Cc1ccc(C(C)C)c(O)c1 [Thymol, thymol]
- MBEC Alone NPs ([1]; S. epidermidis biofilm eradication, natural product alone, mean MBEC, listed as Thy): 128 µg/mL and 106.66 µg/mL
- minimal effective concentration (S. aureus biofilm [2]): 107 µg/mL
- MBC (S. epidermidis; natural products): > 1020 µg/mL
- MBIC alone, NPs [3, 10]: 213.33 µg/mL
- MBIC alone, NPs [3, 14]: 213.33 µg/mL
- MBIC alone, NPs [4, 15]: 341.33 µg/mL
- MBIC alone, NPs [4, 16]: 341.33 µg/mL
- MBIC alone, NPs [5, 12]: 128 µg/mL
- MBIC alone, NPs [5, 17]: 128 µg/mL
- minimal effective concentration (S. aureus biofilm [6]): 341 µg/mL
- minimal effective concentration (S. saprophyticus biofilm): 128 µg/mL
- minimal effective concentration (S. epidermidis biofilm [7]): 107 µg/mL
- minimal effective concentration (S. epidermidis biofilm [8]): 213 µg/mL

SMILES: CC1=CC(=O)c2c(O)cccc2C1=O [Plumbagin, plumbagin]
- MBEC Alone NPs ([1]; S. epidermidis, biofilm eradication, mean, listed as Plu): 13.33 µg/mL and 16 µg/mL
- minimal effective concentration (S. aureus biofilm [2]): 32 µg/mL
- MIC (S. epidermidis): 90.7 µg/mL (≈ 482 µM)
- MBC (S. epidermidis; natural products): > 1020 µg/mL
- MBIC alone, NPs [3, 10]: 8 µg/mL
- MBIC alone, NPs [3, 14]: 8 µg/mL
- MBIC alone, NPs [4, 15]: 10.66 µg/mL
- MBIC alone, NPs ([4]; natural product alone, S. aureus biofilm inhibition, listed as Pb): 10.66 µg/mL
- MBIC alone, NPs [5, 12]: 16 µg/mL
- MBIC alone, NPs [5, 17]: 6.66 µg/mL
- minimal effective concentration (S. aureus biofilm [6]): 10.7 µg/mL
- minimal effective concentration (S. saprophyticus biofilm): 6.66 µg/mL
- minimal effective concentration (S. epidermidis biofilm [7]): 10.7 µg/mL
- minimal effective concentration (S. epidermidis biofilm [8]): 8 µg/mL

- MIC (S. epidermidis): 32.7 µg/mL (≈ 44.5 µM)
SMILES: CC[C@H]1OC(=O)[C@H](C)[C@@H](O[C@H]2C[C@@](C)(OC)[C@@H](O)[C@H](C)O2)[C@H](C)[C@@H](O[C@@H]2O[C@H](C)C[C@H](N(C)C)[C@H]2O)[C@](C)(O)C[C@@H](C)C(=O)[C@H](C)[C@@H](O)[C@]1(C)O [Erythromycin, erythromycin]
- MBEC Alone ATB [1, 9]: 18.66 µg/mL
- minimal effective concentration (S. aureus biofilm [2]): 42.8 µg/mL
- MBC (S. epidermidis; antibiotics): > 128 µg/mL
- MBIC alone, ATB [3, 11]: 24 µg/mL
- MBIC alone, ATB ([4]; S. aureus biofilm inhibition): 42.83 µg/mL
- MBIC alone, ATB [5, 13]: 27.33 µg/mL
- minimal effective concentration (S. aureus biofilm [6]): 42.8 µg/mL
- minimal effective concentration (S. saprophyticus biofilm): 27.3 µg/mL
- minimal effective concentration (S. epidermidis biofilm [7]): 18.7 µg/mL
- minimal effective concentration (S. epidermidis biofilm [8]): 24 µg/mL

- MIC (S. epidermidis): 427 µg/mL (≈ 2510 µM)
SMILES: O=C(O)c1cc(O)c(O)c(O)c1 [Gallic acid, 3,4,5-trihydroxybenzoic acid]
- MBEC Alone NPs ([1]; S. epidermidis biofilm eradication, natural product alone, mean MBEC, listed as Gal): 266.66 µg/mL and 298.66 µg/mL and 426.66 µg/mL
- minimal effective concentration (S. aureus biofilm [2]): 299 µg/mL
- MBC (S. epidermidis; natural products): > 1020 µg/mL
- MBIC alone, NPs [3, 14]: 512 µg/mL
- MBIC alone, NPs [4, 16]: 512 µg/mL
- MBIC alone, NPs [5, 17]: 426.66 µg/mL
- minimal effective concentration (S. aureus biofilm [6]): 512 µg/mL
- minimal effective concentration (S. saprophyticus biofilm): 427 µg/mL
- minimal effective concentration (S. epidermidis biofilm [7]): 267 µg/mL
- minimal effective concentration (S. epidermidis biofilm [8]): 512 µg/mL
